How the values were obtained:
[1] = tested on: hind paws of rats; assay: carrageenin-induced edema test; assay type: in vivo; conditions: for inhibition of paw swelling: 50 mg/kg, administered prior to carrageenin, vs contralateral (control) paws; for anti-inflammatory activity (in words): carrageenin-induced edema, rats
Protocol: It has now been discovered that Punaglandin-1 and -2 are useful in the treatment of inflammation and arthritis in mammals. […] A. Winter, Proc. Soc. Exp. Biol. Med., 111, 544 (1962). In this method, inflammation is induced by injecting carrageenin into one of the hind paws of rats. Test compounds were administered prior to the carrageenin injection to determine the percent inhibition of the subsequent inflammation, in comparison with the animals' contralateral (control) paws.

[2] = tested on: adjuvant-induced arthritis in rats, uninjected hind paw; assay: Developing adjuvant-induced arthritis test in rats: uninjected hind paw volume; assay type: in vivo, male Lewis-Wistar rats; conditions: 10 mg/kg I.P. × 29 daily doses; difference of areas under the curves of mean uninjected paw volumes, TB controls vs treated

Compound | inhibition of paw swelling ([1]; intraperitoneal) [%] | inhibition of paw swelling ([1]; subcutaneous) [%] | anti-inflammatory activity (in words) [1] | % Inhibition of Uninjected Paw Volume Inflammation, Days 16 through 30 [2] [%]
CC/C=C\C/C=C\CC1(O)C=C(Cl)C(=O)C1C(OC(C)=O)C(OC(C)=O)C(CCCC(=O)OC)OC(C)=O (centres unmarked) [Punaglandin-1, 5,6,7-tris(acetyloxy)-7-(4-chloro-2-hydroxy-2-[2(Z),5(Z)-octadienyl]-5-oxo-3-cyclopenten-1-yl)heptanoic acid, methyl ester] | 79.6 | 62.1 | anti-inflammatory activity | 56.7
CCCCC/C=C\CC1(O)C=C(Cl)C(=O)C1C(OC(C)=O)C(OC(C)=O)C(CCCC(=O)OC)OC(C)=O (centres unmarked) [Punaglandin-2, 5,6,7-tris(acetyloxy)-7-(4-chloro-2-hydroxy-2-[2-(Z)-octenyl]-5-oxo-3-cyclopenten-1-yl)heptanoic acid, methyl ester] |  |  | anti-inflammatory activity | 

Reference: US4612330A, “Antiinflammatory method” (Eli Lilly and Company, priority 1985, dated 1986)
